Measurements published in patent US20250002487A1, “HETEROCYCLIC COMPOUNDS AND USES THEREOF” (Ventus Therapeutics U.S., Inc., priority 2021, published 2025).

Target: human-cGAS (h-cGAS) (Homo sapiens, UniProt Q8N884)
Assay: hcGAS Kinase-Glo Assay
Assay type: biochemical
Settings: 40 nM h-cGAS, 100 μM ATP, 100 μM GTP, 25 nM dsDNA, 3 h incubation, read-out: hcGAS potency IC50
Method: In some embodiments, the compounds of the instant disclosure may be tested for their human-cGAS (h-cGAS) inhibition activity using the methodology reported in Lama et al., “Development of human cGAS-specific small molecule inhibitors for repression of double stranded DNA (dsDNA)-triggered interferon expression”, Nature Communications 10, Article number: 2261 (2019), incorporated herein by reference. hcGAS Kinase-Glo Assay Compounds were tested for their human-cGAS (h-cGAS) inhibition activity using the methodology reported in Lama et al., “Development of human cGAS-specific small molecule inhibitors for repression of double stranded DNA (dsDNA)-triggered interferon expression”, Nature Communications 10. Article number: 2261 (2019), which is herein incorporated by reference in its entirety, with slight changes to some conditions as shown in Table B. The results of the assays, expressed in IC50 ranges are reported in Table C with the following designations: A represents an IC50 value <0.1 μM; B represents an IC50 value ≥0.1 μM and <0.5 μM; C represents an IC50 value ≥0.5 μM and <1.0 μM; D represents an IC50 value ≥1.0 μM. [table]

Chain of human-cGAS (h-cGAS) (Q8N884 whole entry): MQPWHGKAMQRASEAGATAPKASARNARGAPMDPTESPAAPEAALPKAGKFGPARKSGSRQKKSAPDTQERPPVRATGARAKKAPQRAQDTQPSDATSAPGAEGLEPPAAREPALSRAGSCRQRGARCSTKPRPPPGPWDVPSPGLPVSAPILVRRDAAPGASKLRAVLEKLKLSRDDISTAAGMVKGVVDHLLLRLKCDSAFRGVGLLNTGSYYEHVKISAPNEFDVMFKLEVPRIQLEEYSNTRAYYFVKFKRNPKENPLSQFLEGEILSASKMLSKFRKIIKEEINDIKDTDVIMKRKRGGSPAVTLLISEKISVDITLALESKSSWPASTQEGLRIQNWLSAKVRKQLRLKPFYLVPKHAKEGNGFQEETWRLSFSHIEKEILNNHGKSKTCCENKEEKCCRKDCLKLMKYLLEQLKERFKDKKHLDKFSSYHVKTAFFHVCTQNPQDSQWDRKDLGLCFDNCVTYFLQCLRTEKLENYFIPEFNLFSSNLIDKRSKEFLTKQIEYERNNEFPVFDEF

| SMILES | IC50 [nM] |
| --- | --- |
| CSc1nnc(NC(=O)c2onc3ccc(Cc4ccc(O)cc4)cc23)s1 [Compound 188, 5-(4-hydroxybenzyl)-N-(5-(methylthio)-1,3,4-thiadiazol-2-yl)benzo[c]isoxazole-3-carboxamide] | 500 to 1000 |
| CSc1nnc(NC(=O)c2onc3ccc(Cc4ccccc4)cc23)s1 [Compound 159, 5-Benzyl-N-(5-(methylthio)-1,3,4-thiadiazol-2-yl)benzo[c]isoxazole-3-carboxamide] | 500 to 1000 |
| CSc1nnc(NC(=O)c2cc(-c3ncc4ccccc4n3)no2)s1 [Compound 153, N-(5-(Methylthio)-1,3,4-thiadiazol-2-yl)-3-(quinazolin-2-yl)isoxazole-5-carboxamide] | 100 to 500 |
| CSc1nnc(NC(=O)c2cc(-c3ccc(=O)[nH]c3)cc(=O)o2)s1 [Compound 272, N-(5-(methylthio)-1,3,4-thiadiazol-2-yl)-2-oxo-4-(6-oxo-1,6-dihydropyridin-3-yl)-2H-pyran-6-carboxamide] | 500 to 1000 |
| O=C(Nc1nnc(-c2cnccn2)s1)c1onc2ccccc12 [Compound 130, N-[5(pyrazin-2-yl)-1,3,4-thiadiazol-2-yl]-2,1-benzoxazole-3-carboxamide] | 500 to 1000 |
| CSc1nnc(NC(=O)c2cc(-c3cccc4c3CCC4)no2)s1 [Compound 68, 3-(2,3-dihydro-1H-inden-4-yl)-N-(5-(methylthio)-1,3,4-thiadiazol-2-yl)isoxazole-5-carboxamide] | 500 to 1000 |
| CSc1nnc(NC(=O)c2cc(-c3ccccc3)cc(=O)o2)s1 [Compound 213, N-[5-(methylsulfanyl)-1,3,4-thiadiazol-2-yl]-6-oxo-4-phenylpyran-2-carboxamide] | 100 to 500 |
| CSc1nnc(NC(=O)c2cc(-c3ccccc3-c3cccc(CC(=O)O)c3)cc(=O)o2)s1 [Compound 177, 2-(2′-(6-((5-(methylthio)-1,3,4-thiadiazol-2-yl)carbamoyl)-2-oxo-2H-pyran-4-yl)-[1,1′-biphenyl]-3-yl)acetic acid] | 500 to 1000 |
| CSc1nnc(NC(=O)c2cc(-c3ccccc3-c3ccc(CC(=O)O)cc3)cc(=O)o2)s1 [Compound 176] | 500 to 1000 |
| CSc1nnc(NC(=O)c2nnn(-c3ccccc3)n2)s1 [Compound 66, N-(5-(methylthio)-1,3,4-thiadiazol-2-yl)-2-phenyl-2H-tetrazole-5-carboxamide] | 500 to 1000 |
| CSc1nnc(NC(=O)c2cc(Nc3ccccc3)cc(=O)o2)s1 [Compound 268, N-(5-(methylthio)-1,3,4-thiadiazol-2-yl)-2-oxo-4-(phenylamino)-2H-pyran-6-carboxamide] | 100 to 500 |
| CSc1nnc(NC(=O)c2nnn(-c3cccnc3)n2)s1 [Compound 137, N-(5-(methylthio)-1,3,4-thiadiazol-2-yl)-2-(pyridin-3-yl)-2H-tetrazole-5-carboxamide] | ≥ 1000 |
| CSc1nnc(NC(=O)c2cc(-c3cccc(Cl)c3)cc(=O)o2)s1 [Compound 240, 4-(3-chlorophenyl)-N-(5-methylsulfanyl-1,3,4-thiadiazol-2-yl)-6-oxo-pyran-2-carboxamide] | 100 to 500 |
| O=C(Nc1nnc(-c2ccccc2Cl)s1)c1nnc(N2CCC[C@@H]2c2ccccn2)o1 [Compound 117, (R)-N-(5-(2-chlorophenyl)-1,3,4-thiadiazol-2-yl)-5-(2-(pyridin-2-yl)pyrrolidin-1-yl)-1,3,4-oxadiazole-2-carboxamide] | 100 to 500 |
| CSc1nnc(NC(=O)c2onc3c2CCCC3)s1 [Compound 67, N-(5-(methylthio)-1,3,4-thiadiazol-2-yl)-4,5,6,7-tetrahydrobenzo[c]isoxazole-3-carboxamide] | 500 to 1000 |
| O=C(Nc1nnc(-c2ccccc2)s1)c1onc2ccccc12 [Compound 19, N-(5-phenyl-1,3,4-thiadiazol-2-yl)benzo[c]isoxazole-3-carboxamide] | ≥ 1000 |
| CSc1nnc(NC(=O)c2ccnc(-c3ccccc3)c2)s1 [Compound 266, N-(5-(methylthio)-1,3,4-thiadiazol-2-yl)-2-phenylisonicotinamide] | ≥ 1000 |
| COCCOc1cc(C(=O)Nc2nnc(-c3ccccc3Cl)s2)on1 [Compound 175, N-(5-(2-chlorophenyl)-1,3,4-thiadiazol-2-yl)-3-(2-methoxyethoxy)isoxazole-5-carboxamide] | 100 to 500 |
| N#Cc1nnc(NC(=O)c2onc3c2ccc2cccnc23)s1 [Compound 9, N-(5-cyano-1,3,4-thiadiazol-2-yl)isoxazolo[4,3-h]quinoline-3-carboxamide] | 100 to 500 |
| CSc1nnc(NC(=O)c2onc3cc(C(=O)N(C)C)ccc23)s1 [Compound 192, N^6,N^6-dimethyl-N^3-(5-(methylthio)-1,3,4-thiadiazol-2-yl)benzo[c]isoxazole-3,6-dicarboxamide] | ≥ 1000 |
| CSc1nnc(NC(=O)c2cc(-c3cccc(C#N)c3)no2)s1 [Compound 214, 3-(3-cyanophenyl)-N-[5-(methylsulfanyl)-1,3,4-thiadiazol-2-yl]-1,2-oxazole-5-carboxamide] | ≥ 1000 |
| CSc1nnc(NC(=O)c2noc(-c3ccccc3)n2)s1 [Compound 236, N-(5-methylsulfanyl-1,3,4-thiadiazol-2-yl)-5-phenyl-1,2,4-oxadiazole-3-carboxamide] | 500 to 1000 |
| CSc1nnc(NC(=O)c2cc(-c3nccs3)no2)s1 [Compound 142, N-(5-(methylthio)-1,3,4-thiadiazol-2-yl)-3-(thiazol-2-yl)isoxazole-5-carboxamide] | 500 to 1000 |
| CSc1nnc(NC(=O)c2nnc(-c3ccccn3)o2)s1 [Compound 106, N-(5-(methylthio)-1,3,4-thiadiazol-2-yl)-5-(pyridin-2-yl)-1,3,4-oxadiazole-2-carboxamide] | 500 to 1000 |
| CN(C)c1nnc(NC(=O)c2onc3c2ccc2cccnc23)s1 [Compound 14, N-(5-(dimethylamino)-1,3,4-thiadiazol-2-yl)isoxazolo[4,3-h]quinoline-3-carboxamide] | ≥ 1000 |
| CSc1nnc(NC(=O)c2nnc(N3CCC[C@H]3c3ccccc3)o2)s1 [Compound 126, (S)-N-(5-(methylthio)-1,3,4-thiadiazol-2-yl)-5-(2-phenylpyrrolidin-1-yl)-1,3,4-oxadiazole-2-carboxamide] | 500 to 1000 |

Next, values leading:

| IC50 [nM] | SMILES |
| --- | --- |
| < 100 | CONC(=O)c1cc(C(=O)Nc2nnc(-c3ccccc3Cl)s2)on1 [Compound 91, N5-(5-(2-chlorophenyl)-1,3,4-thiadiazol-2-yl)-N3-methoxyisoxazole-3,5-dicarboxamide] |
| 100 to 500 | O=C(Nc1nnc(-c2nccs2)s1)c1onc2ccccc12 [Compound 131, N-(5-(thiazol-2-yl)-1,3,4-thiadiazol-2-yl)benzo[c]isoxazole-3-carboxamide] |
| 100 to 500 | COC(=O)c1cc(C(=O)Nc2nnc(-c3ccccc3Cl)s2)on1 [Compound 1, Methyl 5-((5-(2-chlorophenyl)-1,3,4-thiadiazol-2-yl)carbamoyl)isoxazole-3-carboxylate] |
| ≥ 1000 | COc1ccc2noc(C(=O)Nc3nnc(SC)s3)c2c1 [Compound 224, 5-methoxy-N-[5-(methylsulfanyl)-1,3,4-thiadiazol-2-yl]-2,1-benzoxazole-3-carboxamide] |
| ≥ 1000 | O=C(Nc1nnc(-c2c[nH]cn2)s1)c1onc2ccccc12 [Compound 129, N-[5-(1H-imidazol-4-yl)-1,3,4-thiadiazol-2-yl]-2,1-benzoxazole-3-carboxamide] |
| 500 to 1000 | COc1ccccc1-c1nnc(NC(=O)c2onc3ccccc23)s1 [Compound 24, N-(5-(2-methoxyphenyl)-1,3,4-thiadiazol-2-yl)benzo[c]isoxazole-3-carboxamide] |
| 100 to 500 | O=C(Nc1ccccc1)c1cc(C(=O)Nc2nnc(-c3ccccc3Cl)s2)on1 [Compound 92, N5-(5-(2-chlorophenyl)-1,3,4-thiadiazol-2-yl)-N3-phenylisoxazole-3,5-dicarboxamide] |
| 100 to 500 | CSc1nnc(NC(=O)c2nnc(N3CCCC[C@H]3c3ccccc3)o2)s1 (single isomer, unassigned) [Compound 122*] |
| 100 to 500 | COc1cccc(-c2cc(C(=O)Nc3nnc(SC)s3)oc(=O)c2)c1 [Compound 241, 4-(3-methoxyphenyl)-N-(5-methylsulfanyl-1,3,4-thiadiazol-2-yl)-6-oxo-pyran-2-carboxamide] |
| 500 to 1000 | CSc1nnc(NC(=O)c2cc(-c3ccccc3Cl)no2)s1 [Compound 216] |
| 500 to 1000 | O=C(Nc1nnc(-c2ccccc2Cl)s1)c1c[nH]nn1 [Compound 59, N-(5-(2-chlorophenyl)-1,3,4-thiadiazol-2-yl)-1H-1,2,3-triazole-4-carboxamide] |
| ≥ 1000 | CSc1nnc(NC(=O)c2noc(C3CCCCC3)n2)s1 [Compound 263, 5-cyclohexyl-N-(5-(methylthio)-1,3,4-thiadiazol-2-yl)-1,2,4-oxadiazole-3-carboxamide] |
| ≥ 1000 | CSc1nnc(NC(=O)c2nc(-c3ccccc3)cs2)s1 [Compound 65, N-(5-(methylthio)-1,3,4-thiadiazol-2-yl)-4-phenylthiazole-2-carboxamide] |
| 500 to 1000 | CSc1nnc(NC(=O)c2nnc(N3CCCC(C)(C)C3)o2)s1 [Compound 119, 5-(3,3-dimethylpiperidin-1-yl)-N-(5-(methylthio)-1,3,4-thiadiazol-2-yl)-1,3,4-oxadiazole-2-carboxamide] |
